Measured values reported in patent US20250115597A1, “TYK2 INHIBITORS AND COMPOSITIONS AND METHODS THEREOF” (LYNK PHARMACEUTICALS CO. LTD., priority 2021, published 2025).
≈ marks a conversion by molar mass, not a printed value. Like-named read-outs stand apart in the source and are kept apart here.

Legend:
Ba/F3-TEL-JAK2 cells = target: T1, Ba/F3-TEL-JAK2 cells (Homo sapiens, UniProt O60674); experiment: Anti-proliferative assay, Ba/F3-TEL-JAK2 cells (Cell-Titer Glo); assay type: cell-based; conditions: 72 h, read-out: BaF3-TEL-JAK2 IC50
T1 construct: fused on or other part: Dimerization domain of TEL (ETV6) fused to the JAK2 kinase domain; P41212 (Transcription factor ETV6)
Protocol: (§1) Anti-Proliferative Assay Dimerization domain of Tel protein fused with JAK kinase domain was permanently transduced into Ba/F3 cells, whose proliferation is dependent on JAK activity in the absence of IL-3 induction. These engineered Ba/F3 cells (Ba/F3-FL-TYK2-[…], Ba/F3-TEL-TYK2 and Ba/F3-TEL-JAK2) were used to monitor JAK inhibitory activities of the compounds in the cellular. […] Cells were seeded at 2000/well of white flat bottom 96-well plates. The well containing medium only was used as background control. After 24 h growth, cells were treated with compounds. The test compounds were dissolved in DMSO to a stock concentration of 20 mM. 3-fold serially diluted compounds for 9 concentrations with top concentration of 20 μM was added into the each well. […] The cells continued to grow at 37° C. in 5% CO2 for 72 h after compound treatment. The viability was measured by cellular ATP determination using the Cell-Titer Glo luciferase reagent (Promega). The Luminescence value was recorded by a multi-label reader Envision (PerkinElmer).

Ba/F3-TEL-TYK2 cells = target: T2, Ba/F3-TEL-TYK2 cells (Homo sapiens, UniProt P29597); experiment: Anti-proliferative assay, Ba/F3-TEL-TYK2 cells (Cell-Titer Glo); assay type: cell-based; conditions: 72 h, read-out: BaF3-TEL-TYK2 IC50
T2 construct: fused on or other part: Dimerization domain of TEL (ETV6) fused to the TYK2 kinase domain; P41212 (Transcription factor ETV6)
Protocol: as §1

[1] = target: T3, Ba/F3-FL-TYK2-P760L cells (Homo sapiens, UniProt P29597, P760L, cells depend on it); experiment: Anti-proliferative assay, Ba/F3-FL-TYK2-P760L cells (Cell-Titer Glo); assay type: cell-based; conditions: 72 h, read-out: BaF3-FL-T2P760L IC50
T3 construct: BaF3-FL-T2P760L (nM)
Summary of the method: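 Ba/F3 cells made IL-3-independent by TEL-fused or full-length mutant JAK-family kinases, seeded at 2000/well and dosed after 24 h with 9 three-fold dilutions topping at 20 μM. Viability after 72 h at 37 °C, 5% CO2 by Cell-Titer Glo ATP luminescence.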

JAK2 = target: T4, JAK2 (Homo sapiens, UniProt O60674); experiment: JAK2 kinase activity, microfluidic assay (Caliper EZ Reader II); assay type: biochemical; conditions: JAK2 0.125 nM, 1 mM ATP
T4 construct: purchased Carna Biosciences
Protocol: (§2) Testing for JAK1, JAK2 and TYK2 Kinase Activities
(§3) JAK activity was determined in the reaction buffer 50 mM HEPES, 0.01% Brij35, 10 mM MgCl2, 2 mM DTT by a microfluidic assay. The phosphorylation of a FAM labeled peptide substrate was monitored in the Caliper EZ Reader II (Perkin Elmer). The assay condition for each batch of enzyme (Carna Biosciences) was optimized to obtain 10% conversion rate of peptide substrate.
(§4) The test compounds were dissolved in DMSO to a stock concentration of 10 mM. Three-fold serially diluted compounds with top concentration of 5 μM were pre-incubated with JAK1, JAK2 or TYK2 for 10 min at ambient temperature. The final DMSO concentration of assay mixture was 1%. […] The reaction was stopped by adding 50 mM EDTA.
(§5) The percent inhibition was calculated by the following formula:
(§6) [formula] • wherein • Conversion %_max=the conversion rate in the positive well without addition of compound • Conversion %_sample=the conversion rate of test compounds • Conversion %_min=the conversion rate in the well without addition of enzyme
(§7) The dose-response (percent inhibition) curve was plotted and IC50 values were determined by GraphPad software.

TYK2 = target: T5, TYK2 (Homo sapiens, UniProt P29597); experiment: TYK2 kinase activity, microfluidic assay (Caliper EZ Reader II); assay type: biochemical; conditions: TYK2 1 nM, 1 mM ATP
T5 construct: purchased Carna Biosciences
Protocol: as §2, §3, §4, §5, §6, §7

[2] = Plasma protein binding by equilibrium dialysis; assay type: in vitro ADME; conditions: human plasma, equilibrium dialysis 5 hours at 37° C.; read-out: % Bound (human) (converted)
Summary of the method: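 Compound spiked into plasma at 0.2 and 2 μM was dialyzed against PBS for 5 h at 37° C with shaking, in duplicate. Plasma and buffer chambers were matrix-matched, protein-precipitated and analysed by LC-MS/MS to derive % unbound, % bound and % recovery.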

JAK1-JH2 domain = target: T6, JAK1-JH2 domain (Homo sapiens, UniProt P23458); experiment: Binding activity test for JH2 domain of JAK1 (Tb-antibody/tracer FRET)
T6 construct: IC50 on JH2 domain activity (nM)
Summary of the method: (§8)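 Compounds tested as 11-point 3-fold serial dilutions against the JH2 domain in a Tb-antibody/tracer FRET binding format. Plates incubated 60 min at 25° C, then overnight at 4° C, before FRET reading.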

TYK2-JH2 domain = target: T7, TYK2-JH2 domain (Homo sapiens, UniProt P29597); experiment: Binding activity test for JH2 domain of TYK2 (Tb-antibody/tracer FRET); conditions: for JAK1/TYK2 selectivity: ratio JAK1-JH2 IC50 / TYK2-JH2 IC50
T7 construct: IC50 on JH2 domain activity (nM)
Summary of the method: as §8

Kinetic solubility = assay type: physicochemical; conditions: phosphate buffer, aqueous buffer, kinetic from dmso stock, PBS (pH 7.4), 1% DMSO, room temperature
Protocol: Aliquots of 8 μL of reference and test compound stock solutions (10 mM/5 mM) are added into 792 μL of 100 mM pH 7.4 phosphate buffer. The final DMSO concentration is 1%. Sample tubes are shaken for 2 hours at 1000 rpm at room temperature. Samples are centrifuged at 12000 rpm for 10 min to precipitate un-dissolved particles. And transfer the supernatants to a new tube or plate. Add 5 μL of samples (no diluted, 10 times diluted and 100 times diluted) and standard curve samples to 95 μL of ACN containing IS for LC-MS/MS analysis.

JAK1 = target: T8, JAK1 (Homo sapiens, UniProt P23458); experiment: JAK1 kinase activity, microfluidic assay (Caliper EZ Reader II); assay type: biochemical; conditions: JAK1 5 nM, 1 mM ATP
T8 construct: purchased Carna Biosciences
Protocol: as §2, §3, §4, §5, §6, §7

[3] = Microsomal metabolic stability assay; assay type: in vitro ADME; conditions: pH 7.4, 0.5 mg/mL protein, 1 μM compound
Summary of the method: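 Test article at 1 μM with 0.5 mg/mL microsomal protein and 2 mM NADPH, in 100 mM potassium phosphate pH 7.4 with 1.0 mM EDTA at 37 °C. Sampled at 0–45 min and quantified by LC/MS/MS. T1/2 from the slope of ln % remaining vs time.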

pSTAT1 = experiment: Phosphorylation inhibition of STAT in human whole blood, IFN-alpha stimulated (flow cytometry); assay type: cell-based; conditions: 20 min; human whole blood, IFN-alpha 20 mins, CD3 cells; read-out: IC50 on pSTAT1 inhibition in h WB
Summary of the method: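 Freshly prepared PBMC or freshly collected whole blood stimulated with human Universal Type I IFN-alpha for 20 min, then fixed, permeabilized on ice and stained for CD3 and pSTAT1 (Y701). pSTAT1 read by flow cytometry; IC50 from 4-parameter logistic fit.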

[4] = dog liver microsomes, read-out: Dog LM Clint
[5] = dog liver microsomes, read-out: Dog LM T½
[6] = human liver microsomes, read-out: Human LM Clint
[7] = human liver microsomes, read-out: Human LM T½
[8] = rat liver microsomes, read-out: Rat LM Clint
[9] = rat liver microsomes, read-out: Rat LM T½

T2 sequence (P29597 whole entry, change not shown, the tested form may be a part): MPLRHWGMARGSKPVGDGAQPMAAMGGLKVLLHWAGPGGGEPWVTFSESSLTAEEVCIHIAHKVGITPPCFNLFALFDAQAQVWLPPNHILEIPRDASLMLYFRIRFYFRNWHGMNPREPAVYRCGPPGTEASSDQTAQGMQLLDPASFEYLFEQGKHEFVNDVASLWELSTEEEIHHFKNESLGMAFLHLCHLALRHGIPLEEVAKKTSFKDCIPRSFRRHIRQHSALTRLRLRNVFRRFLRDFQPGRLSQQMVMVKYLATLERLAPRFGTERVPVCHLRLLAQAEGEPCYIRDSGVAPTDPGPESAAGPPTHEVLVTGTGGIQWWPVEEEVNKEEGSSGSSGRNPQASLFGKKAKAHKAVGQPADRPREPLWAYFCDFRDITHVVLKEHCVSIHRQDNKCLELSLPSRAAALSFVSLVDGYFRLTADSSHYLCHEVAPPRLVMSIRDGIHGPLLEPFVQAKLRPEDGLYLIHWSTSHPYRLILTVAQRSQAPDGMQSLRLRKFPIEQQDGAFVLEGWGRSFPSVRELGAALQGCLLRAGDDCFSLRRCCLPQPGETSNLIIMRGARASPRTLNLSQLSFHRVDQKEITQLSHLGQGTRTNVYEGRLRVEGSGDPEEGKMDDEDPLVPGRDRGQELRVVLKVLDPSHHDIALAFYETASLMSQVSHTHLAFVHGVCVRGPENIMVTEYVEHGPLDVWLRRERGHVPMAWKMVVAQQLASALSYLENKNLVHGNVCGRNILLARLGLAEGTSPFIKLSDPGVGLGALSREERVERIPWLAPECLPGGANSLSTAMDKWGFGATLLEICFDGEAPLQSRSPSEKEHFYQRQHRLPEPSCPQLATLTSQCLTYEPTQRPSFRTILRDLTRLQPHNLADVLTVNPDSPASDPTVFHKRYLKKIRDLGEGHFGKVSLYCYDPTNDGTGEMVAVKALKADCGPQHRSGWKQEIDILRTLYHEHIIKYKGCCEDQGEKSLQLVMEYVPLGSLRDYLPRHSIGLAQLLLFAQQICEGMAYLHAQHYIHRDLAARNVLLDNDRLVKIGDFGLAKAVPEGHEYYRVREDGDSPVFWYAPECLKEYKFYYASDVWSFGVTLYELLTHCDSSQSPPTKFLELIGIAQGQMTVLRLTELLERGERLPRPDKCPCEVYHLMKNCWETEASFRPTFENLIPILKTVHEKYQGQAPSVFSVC
T7 sequence (P29597 589-875 limits assumed): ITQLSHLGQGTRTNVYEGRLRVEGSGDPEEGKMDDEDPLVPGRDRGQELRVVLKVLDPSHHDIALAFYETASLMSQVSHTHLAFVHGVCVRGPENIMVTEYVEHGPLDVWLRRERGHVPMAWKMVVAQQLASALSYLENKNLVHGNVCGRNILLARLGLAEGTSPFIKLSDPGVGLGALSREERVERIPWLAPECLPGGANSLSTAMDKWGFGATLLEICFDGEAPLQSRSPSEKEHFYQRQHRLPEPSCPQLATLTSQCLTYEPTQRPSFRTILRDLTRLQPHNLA
T1 sequence (O60674 whole entry, change not shown, the tested form may be a part): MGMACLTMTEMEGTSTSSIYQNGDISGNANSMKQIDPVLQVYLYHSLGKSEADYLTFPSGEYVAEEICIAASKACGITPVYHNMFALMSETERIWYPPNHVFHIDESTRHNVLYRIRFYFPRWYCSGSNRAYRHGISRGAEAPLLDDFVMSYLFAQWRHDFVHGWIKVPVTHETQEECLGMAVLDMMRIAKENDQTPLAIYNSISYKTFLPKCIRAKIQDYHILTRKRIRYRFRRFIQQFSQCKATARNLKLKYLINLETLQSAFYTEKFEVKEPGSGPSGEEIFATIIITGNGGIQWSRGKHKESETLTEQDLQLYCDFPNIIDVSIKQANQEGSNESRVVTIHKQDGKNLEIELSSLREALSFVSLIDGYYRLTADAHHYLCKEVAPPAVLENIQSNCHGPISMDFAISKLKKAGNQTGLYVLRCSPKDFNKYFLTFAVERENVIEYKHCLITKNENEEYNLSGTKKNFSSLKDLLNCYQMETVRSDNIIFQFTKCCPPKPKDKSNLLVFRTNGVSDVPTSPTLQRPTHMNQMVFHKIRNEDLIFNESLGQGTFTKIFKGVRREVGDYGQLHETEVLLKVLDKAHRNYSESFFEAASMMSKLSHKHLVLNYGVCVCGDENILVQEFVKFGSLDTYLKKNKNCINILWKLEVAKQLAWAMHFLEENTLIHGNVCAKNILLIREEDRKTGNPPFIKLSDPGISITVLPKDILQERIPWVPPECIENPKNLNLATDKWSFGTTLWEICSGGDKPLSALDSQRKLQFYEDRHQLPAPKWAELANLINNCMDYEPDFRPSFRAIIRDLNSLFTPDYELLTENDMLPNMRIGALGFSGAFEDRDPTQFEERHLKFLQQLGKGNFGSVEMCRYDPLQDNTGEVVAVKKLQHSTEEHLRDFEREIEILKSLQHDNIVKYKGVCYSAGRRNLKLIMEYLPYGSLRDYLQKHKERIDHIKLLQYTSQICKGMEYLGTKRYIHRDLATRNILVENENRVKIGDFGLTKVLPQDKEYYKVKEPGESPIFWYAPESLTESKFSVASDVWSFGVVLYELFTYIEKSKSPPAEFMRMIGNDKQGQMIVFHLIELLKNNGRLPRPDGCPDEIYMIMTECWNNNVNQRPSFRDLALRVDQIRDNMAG
T3 sequence (P29597 whole entry P760L): as the sequence (P29597 whole entry, change not shown, the tested form may be a part) above, with P760L counted along it
T6 sequence (P23458 583-855 limits assumed): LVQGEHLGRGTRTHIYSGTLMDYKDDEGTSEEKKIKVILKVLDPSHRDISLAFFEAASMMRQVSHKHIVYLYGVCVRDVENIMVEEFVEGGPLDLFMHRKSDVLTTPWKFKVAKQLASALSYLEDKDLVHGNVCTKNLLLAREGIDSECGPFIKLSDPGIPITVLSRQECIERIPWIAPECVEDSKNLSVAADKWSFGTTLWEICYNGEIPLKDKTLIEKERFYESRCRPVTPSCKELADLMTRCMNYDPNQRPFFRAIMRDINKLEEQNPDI
T5 sequence (P29597 whole entry): as the sequence (P29597 whole entry, change not shown, the tested form may be a part) above
T4 sequence (O60674 whole entry): as the sequence (O60674 whole entry, change not shown, the tested form may be a part) above
T8 sequence (P23458 whole entry): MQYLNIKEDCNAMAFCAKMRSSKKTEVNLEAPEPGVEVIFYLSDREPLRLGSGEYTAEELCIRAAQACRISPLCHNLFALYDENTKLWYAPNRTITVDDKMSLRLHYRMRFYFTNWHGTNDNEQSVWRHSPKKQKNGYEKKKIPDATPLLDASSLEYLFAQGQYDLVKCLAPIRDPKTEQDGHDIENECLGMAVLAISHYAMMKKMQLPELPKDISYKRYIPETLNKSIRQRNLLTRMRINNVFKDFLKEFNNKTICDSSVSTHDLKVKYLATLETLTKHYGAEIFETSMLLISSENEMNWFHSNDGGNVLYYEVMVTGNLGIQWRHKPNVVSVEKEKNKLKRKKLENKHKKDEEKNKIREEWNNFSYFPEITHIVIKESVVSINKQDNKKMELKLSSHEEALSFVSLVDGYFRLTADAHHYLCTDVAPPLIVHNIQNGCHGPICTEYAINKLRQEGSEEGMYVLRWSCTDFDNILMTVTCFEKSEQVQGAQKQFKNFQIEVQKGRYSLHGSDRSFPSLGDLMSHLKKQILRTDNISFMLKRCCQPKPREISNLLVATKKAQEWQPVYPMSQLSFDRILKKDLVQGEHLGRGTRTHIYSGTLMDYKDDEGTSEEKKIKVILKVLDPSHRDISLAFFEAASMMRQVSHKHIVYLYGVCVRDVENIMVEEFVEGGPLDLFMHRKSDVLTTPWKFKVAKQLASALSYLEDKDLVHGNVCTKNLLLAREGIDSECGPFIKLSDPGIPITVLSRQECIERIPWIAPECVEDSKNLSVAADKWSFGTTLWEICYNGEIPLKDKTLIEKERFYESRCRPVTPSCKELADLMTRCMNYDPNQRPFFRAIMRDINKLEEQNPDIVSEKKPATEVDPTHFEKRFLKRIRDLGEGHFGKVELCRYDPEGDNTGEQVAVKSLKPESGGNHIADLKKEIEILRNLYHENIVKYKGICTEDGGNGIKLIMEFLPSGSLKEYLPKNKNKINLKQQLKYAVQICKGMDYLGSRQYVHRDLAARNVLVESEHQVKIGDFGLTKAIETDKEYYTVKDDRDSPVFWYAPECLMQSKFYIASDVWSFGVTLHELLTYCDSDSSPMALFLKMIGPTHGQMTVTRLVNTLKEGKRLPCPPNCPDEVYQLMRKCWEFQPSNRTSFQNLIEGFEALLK

Structure (SMILES) | GI50 (Ba/F3-TEL-JAK2 cells) | GI50 (Ba/F3-TEL-TYK2 cells) | GI50 [1] | IC50 (JAK2) | IC50 (TYK2) | fraction unbound at 5 h [2] | IC50 (JAK1-JH2 domain) | IC50 (TYK2-JH2 domain) | JAK1/TYK2 selectivity (TYK2-JH2 domain) | solubility at 2 h (Kinetic solubility) | IC50 (JAK1) | microsomal CLint at 1 μM [3, 4] | half-life at 1 μM [3, 5] | microsomal CLint at 1 μM [3, 6] | half-life at 1 μM [3, 7] | microsomal CLint at 1 μM [3, 8] | half-life at 1 μM [3, 9] | IC50 (pSTAT1)
CNC(=O)c1cnc2nc1Nc1cc(cc(-c3ncn(C)n3)c1OC)COCc1cc(ccc1F)N2 [Example 36, 18-Fluoro-10-methoxy-N-methyl-11-(1-methyl-1H-1,2,4-triazol-3-yl)-15-oxa-2,4,8,23-tetraazatetracyclo[15.3.1.1^{3,7}.1^{9,13}]tricosa-1(20),3,5,7(23),9(22),10,12,17(21),18-nonaene-6-carboxamide] | 892 nM | 1.96 µM | 173 nM | – | – | – | – | – | – | – | – | – | – | – | – | – | – | –
[2H]C([2H])([2H])NC(=O)c1cnc(Nc2ccc(Cl)cc2)nc1Nc1cccc(-c2ncn(C)n2)c1OC [Example 3, 2-((4-Chlorophenyl)amino)-4-((2-methoxy-3-(1-methyl-1H-1,2,4-triazol-3-yl)phenyl)amino)-N-(methyl-d3) pyrimidine-5-carboxamide] | 2300 nM | 5.44 µM | 70.7 nM | – | – | – | – | – | – | – | – | – | – | – | – | – | – | –
CCn1ncc2cnc(Nc3cc(NC(=O)C4CC4)ncc3C(=O)NC)c(OC)c21 [Example 261, 6-(Cyclopropanecarboxamido)-4-((1-ethyl-7-methoxy-1H-pyrazolo[4,3-c]pyridin-6-yl)amino)-N-methylnicotinamide] | – | – | 113 nM | > 5 µM | > 5 µM | 0.085 | 45.4 nM | 0.956 nM | 47.4 | 58 µM (≈ 23.8 µg/mL) | > 5 µM | – | – | – | – | – | – | –
CCC(=O)c1cnc(Nc2ccc(F)cc2)nc1Nc1cccc(-c2ncn(C)n2)c1OC [Example 8, 1-(2-((4-Fluorophenyl)amino)-4-((2-methoxy-3-(1-methyl-1H-1,2,4-triazol-3-yl)phenyl)amino)pyrimidin-5-yl)propan-1-one] | 7470 nM | > 20 µM | 157 nM | – | – | – | – | – | – | – | – | – | – | – | – | – | – | –
[2H]C([2H])([2H])NC(=O)c1cnc(NC(=O)C2CC2)cc1Nc1cn(C)c2ncn([C@H](C)C(F)(F)F)c(=O)c12 (single isomer, unassigned) [Example 234A, (R*)-6-(cyclopropanecarboxamido)-N-(methyl-d3)-4-((7-methyl-4-oxo-3-(1,1,1-trifluoropropan-2-yl)-4,7-dihydro-3H-pyrrolo[2,3-d]pyrimidin-5-yl)amino)nicotinamide] | – | – | – | – | – | 0.123 | 24.4 nM | 0.521 nM | 46.7 | 29.9 µM (≈ 14.4 µg/mL) | – | 10.9 µL/min/mg | 127 min | 24.3 µL/min/mg | 57 min | 35.3 µL/min/mg | 39.3 min | 495 nM
CNC(=O)c1cnc(Nc2ccc(F)cn2)cc1Nc1csc2ccn(C)c(=O)c12 [Example 15, 6-((5-Fluoropyridin-2-yl)amino)-N-methyl-4-((5-methyl-4-oxo-4,5-dihydrothieno[3,2-c]pyridin-3-yl)amino)nicotinamide] | > 20000 nM | > 20 µM | 23.6 nM | – | – | – | – | – | – | – | – | – | – | – | – | – | – | –
[2H]C([2H])([2H])NC(=O)c1cnc(NC(=O)C2CC2)cc1Nc1ccc2cnn(CC(F)F)c2c1OC [Example 131, 6-(Cyclopropanecarboxamido)-4-((1-(2,2-difluoroethyl)-7-methoxy-1H-indazol-6-yl)amino)-N-(methyl-d3)nicotinamide] | – | – | 65.4 nM | – | – | 0.046 | 13.3 nM | 0.33 nM | 40.2 | 32.1 µM (≈ 14.4 µg/mL) | – | 65.8 µL/min/mg | 21.1 min | 95 µL/min/mg | 14.6 min | 109 µL/min/mg | 12.8 min | –
[2H]C([2H])([2H])NC(=O)c1cnc(NC(=O)C2CC2)cc1Nc1ccc2cnn(C)c2c1OC [Example 206, 6-(Cyclopropanecarboxamido)-4-((7-methoxy-1-methyl-1H-indazol-6-yl)amino)-N-(methyl-d3)nicotinamide] | – | – | 68.5 nM | – | – | 0.07 | 11 nM | 0.623 nM | 17.6 | 28.7 µM (≈ 11.4 µg/mL) | – | – | – | – | – | – | – | –
